These results are taken from patent US7704508B2, “Babesia subtilisin” (New York Blood Center, priority 2007, dated 2010).

SMILES strings stand for the structures. Starred links: 1 amine or outer side, 2 acyl side, 3 side chain; linkers in the order of their positions; H or OH if unused. Non-standard residues stand in square brackets, D forms with d. Residues, ends and D or L forms follow the SMILES beside them. ξ: configuration not given here. *: point of attachment. Sta = CC(C)C[C@H](N)[C@@H](O)CC(=O)O; Isovaleryl = CC(C)CC(=O)*; ξF = NC(Cc1ccccc1)C(=O)O; CO = O=C([*:1])[*:2]

The subject of assay [1] is B. divergens. Nature of the assay: Effect of protease inhibitors on B. divergens erythrocyte invasion (parasitemia by YOYO-1 flow cytometry, T10). As to conditions: for inhibition of invasion: 50 and 100 μM, relative to control; for inhibition at 50 µM / inhibition at 100 µM: Erythrocyte. It counts as cell-based. As to the method: (§1) Parasitemia for B. divergens was assessed in human RBCs using a modification of the methods of Barkan et al. (Int. J. Parasitol. 30:649-53, 2000) and Jimenez-Diaz et al. (Cytometry A 67:27-36, 2005), both of which are incorporated by reference herein for all they contain regarding assessment of parasitemia. DNA content was measured after staining with YOYO-1 (a high affinity cell-impermeant dye that increases green fluorescence by 1000-fold when bound to dsDNA) observed infected erythrocytes compared with non-infected human erythrocytes for B. divergens.
(§2) To assess the effect of various protease inhibitors, parasitemia was assessed in 180 parasite samples taken at different time points (0 and after 10, 24, 48 and 72 h). In parallel with the evaluation of the parasitemia by FACS (fluorescence activated cell sorting), 60 random parasite samples were analyzed by light microscopy using Giemsa-stained thin blood smears, with 500-1000 RBCs being counted for each smear. […] Integration of the numbers of events represented in the right peak provides a direct estimate of the parasitemia, where one infected cell is one event.
(§3) Protease inhibitors were tested for their ability to inhibit the invasion and growth of B. divergens in vitro.
(§4) The effects of EGTA, a chelating agent capable of binding metal ions including Ca^2+, on the invasion and growth of B. divergens was tested. EGTA cannot permeate the biological membrane of cells so its effects are only on the chelation of extracellular ions. As many serine proteases require Ca^2+ for activity, EGTA also functions as a serine protease inhibitor.

Assay [2] concerns B. divergens. Kind of assay: Effect of protease inhibitors on B. divergens growth in culture (parasitemia by YOYO-1 flow cytometry, T72). It counts as cell-based. As to conditions: for inhibition of growth / decrease of parasitemia after 72 h: 50 and 100 μM, compared to control; for Growth T72 50 μM (inhibition) / Growth T72 100 μM (inhibition) / inhibition at 50 µM / inhibition at 100 µM: T72. The protocol: as §1, §2, §3, §4
On the technique in general: In flow cytometry, cells or beads pass a laser one at a time.

For the next assay, the system named is BdSUB-1. Kind of assay: Effect of brefeldin A on BdSUB-1 processing during secretory transport (western blot). It counts as cell-based, B. divergens. The settings on record: 40 μg/ml BFA in methanol, 1 hour, 37° C., western blot with PfSUB1m antibodies. The protocol:
Monitoring the effect of brefeldin A. The effects of brefeldin A (BFA, Sigma) on BdSUB-1 processing during secretory transport was monitored using ^35S-radiolabeled B. divergens cultures. The drug was prepared as a stock solution in methanol at 1 mg ml^−1 and then added to parasite cultures to a final concentration of 40 μg ml^−1 BFA. Methanol was added to the control cultures and cells were cultured at 37° C. in a […], 5% nitrogen and 5% oxygen for 1 hour. Samples were washed in PBS, lysed in saponin buffer and analyzed by western blot using the anti-PfSUB1m antibodies.
BdSUB-1 undergoes post-translational processing during secretory transport. […] In order to examine whether BdSUB-1 undergoes intracellular post-translational processing steps within the parasite secretory pathway, brefeldin A (BFA) was employed, which blocks secretory transport of proteins from the endoplasmic reticulum (ER) to the Golgi apparatus. Western-blot analysis was performed on parasite lysates that were obtained from cultures grown in the presence or absence of BFA, using anti-PfSUB1m antibodies. […] Thus, BdSUB-1 is initially synthesized as a large precursor protein of ˜78 kDA and cleavage of the signal peptide results in the formation of p75, which is the largest detectable protein seen in the assays. This p75 is then processed to p55, which then gets converted to p48 in the Golgi. […]
(In general: A western blot detects proteins with antibodies after separation by electrophoresis.)

With `NCCc1ccc(S(=O)(=O)F)cc1` [ABSF, 4-(2-aminoethyl)benzenesulfonyl fluoride], in the assay on B. divergens [1] (T10), the “Invasion T10 50 μM (inhibition)” value came to 3.3 ± 6.8% and the “Invasion T10 100 μM (inhibition)” value came out at 34.0 ± 9.0%. For the same compound, in the assay with B. divergens [2], the “Growth T72 50 μM (inhibition)” value is recorded as 8.8 ± 7.4% and the “Growth T72 100 μM (inhibition)” value was found to be 28.0 ± 5.0%.

Regarding `Cc1ccc(S(=O)(=O)N[C@@H](CCCCN)C(=O)CCl)cc1` [TLCK, N-α-tosyl-L-lysine chloromethyl ketone], in the assay with B. divergens [1] (T10), the “Invasion T10 50 μM (inhibition)” value is 64.0 ± 3.1% and the “Invasion T10 100 μM (inhibition)” value was found to be 60.0 ± 2.0%. Besides, the “inhibition of invasion” value in the assay on B. divergens [1] was approximately 60%. Further, in the assay with B. divergens [2], the “Growth T72 50 μM (inhibition)” value was 92.1 ± 3.0%, the “Growth T72 100 μM (inhibition)” value is 94.1 ± 0.9% and the “inhibition of growth / decrease of parasitemia after 72 h” value is recorded as “approximately 90%”. For the same compound, the “morphology of the parasites during invasion and growth inhibition assay” value with B. divergens [2] (microscopy of treated cultures) was “no alteration in the morphology of the parasites”.

Regarding `O=S(=O)(F)Cc1ccccc1` [PMSF, phenylmethylsulfonyl fluoride], in the assay with B. divergens [1] (T10), the “Invasion T10 50 μM (inhibition)” value turned out to be 28.0 ± 8.9% and the “Invasion T10 100 μM (inhibition)” value stood at 35.0 ± 18.0%. Besides, in the assay with B. divergens [2], the “Growth T72 50 μM (inhibition)” value was 45.0 ± 5.2% and the “Growth T72 100 μM (inhibition)” value turned out to be 46.7 ± 3.3%.

Take `C[C@H]1CCC/C=C/[C@@H]2C[C@H](O)C[C@H]2[C@H](O)/C=C/C(=O)O1` [BFA, brefeldin A]: the “BdSUB-1 processing / secretory transport” value with BdSUB-1 is reported as “blocked the secretory transport of BdSUB-1 from the ER to the Golgi apparatus”.

For orientation: inhibition means how much of the control response was suppressed. High values mean a strong effect, low ones a weak effect. Regarding `CC(C)[C@H](NC(=O)[C@H](CCCNC(=N)N)NC(=O)NC(Cc1ccccc1)C(=O)O)C(=O)N[C@H](C=O)CCCNC(=N)N` (stereo partly drawn) [Antipain, (1-carboxy-2-phenylethyl)carbamoyl-L-arginyl-L-valylargininal] ({ξF-CO}-Arg-Val-Arg-aldehyde), the inhibition at 50 µM with B. divergens [1] (T10) came to 33 ± 6.5%; in the assay with B. divergens [2] it was 15 ± 8.4%. In addition, the results for the inhibition at 100 µM with B. divergens [1] (T10) and in the assay on B. divergens [2] were 37.7 ± 14.1% and 16 ± 8.5%, respectively.

On to `CC(C)CC(=O)N[C@H](C(=O)N[C@H](C(=O)N[C@@H](CC(C)C)[C@@H](O)CC(=O)N[C@@H](C)C(=O)N[C@@H](CC(C)C)[C@@H](O)CC(=O)O)C(C)C)C(C)C` [Pepstatin, pepstatin] (Isovaleryl-VV[Sta]A[Sta]-OH), for which the inhibition at 50 µM in the assay on B. divergens [1] (T10) is 17 ± 6.4%; in the assay with B. divergens [2], 9.1 ± 3.1%. Further, the inhibition at 100 µM in the assay with B. divergens [1] (T10) stood at 2 ± 0.8%; in the assay on B. divergens [2] it was 16 ± 9.2%.

Turning to `O=c1oc(Cl)c(Cl)c2ccccc12` [3,4 DCI], in the assay with B. divergens [1] (T10), the “Invasion T10 50 μM (inhibition)” value was found to be 38.0 ± 2.0% and the “Invasion T10 100 μM (inhibition)” value is 43.0 ± 1.2%. In the assay with B. divergens [1], the “inhibition of invasion” value is listed as 40%. In the assay with B. divergens [2], the “Growth T72 50 μM (inhibition)” value is on record as 70.7 ± 1.4%, the “Growth T72 100 μM (inhibition)” value came to 76.0 ± 2.3% and the “inhibition of growth / decrease of parasitemia after 72 h” value amounted to 76%.

Consider `O=C(O)CN(CCOCCOCCN(CC(=O)O)CC(=O)O)CC(=O)O` [EGTA, ethylene glycol tetraacetic acid], for which, in the assay on B. divergens [1] (1 mM, T10), the “Invasion T10 1 mM (inhibition)” value is reported as 48.0 ± 3.1%. In addition, the “Invasion T10 3 mM (inhibition)” value in the assay on B. divergens [1] (3 mM, T10) is reported as 52.0 ± 2.6%. Besides, the “reversal of inhibition of invasion and growth by Ca2+” value in the assay with B. divergens [1] (Ca2+ added in the same concentration as EGTA) is reported as “completely reversed”. Also, in the assay with B. divergens [1] (EGTA 1, 2 and 3 mM), the “percentage of inhibition on invasion” value came to 50%. Besides, in the assay with B. divergens [2], the “Growth T72 1 mM (inhibition)” value amounted to 82.0 ± 0.4%; the “Growth T72 3 mM (inhibition)” value is 83.0 ± 0.5%; the “growth of the parasite after 72 h, lower than the control” value worked out at 83%.
